Results: the NIST ThermoML archive (doi:10.1021/je049672l)
Values joined by “and” are separate entries in the source; they are usually repeats but may differ in a detail not shown here. Equal values may be shown once.

Conditions: for mass density: Vibrating tube method; for vapor or sublimation pressure: Closed cell (Static) method

CCCC [butane]
Fluid (supercritical or subcritical phases)
Conditions	mass density [kg/m3]
240 K, 486 kPa	635.96
240 K, 1007.3 kPa	636.47
240 K, 1510.1 kPa	636.95
240 K, 2000.1 kPa	637.42
240 K, 2570.2 kPa	637.97
240 K, 3029.5 kPa	638.41
240 K, 3512.2 kPa	638.87
240 K, 4001.2 kPa	639.35
240 K, 4487.8 kPa	639.8
240 K, 5029 kPa	640.31
240 K, 5540.8 kPa	640.78
240 K, 5990.8 kPa	641.21
240 K, 6517.3 kPa	641.67
240 K, 7115.6 kPa	642.22
260 K, 481 kPa	615.74
260 K, 998.4 kPa	616.36
260 K, 1521.8 kPa	616.98
260 K, 2020.3 kPa	617.55
260 K, 2488.3 kPa	618.09
260 K, 3039.4 kPa	618.72
260 K, 3506.9 kPa	619.26
260 K, 3997 kPa	619.8
260 K, 4494.6 kPa	620.36
260 K, 5004.2 kPa	620.91
260 K, 5503.1 kPa	621.46
260 K, 6003.3 kPa	622.01
260 K, 6478.7 kPa	622.54
260 K, 6989.2 kPa	623.08
280 K, 144.7 kPa	593.92
280 K, 173.2 kPa	593.97
280 K, 493.9 kPa	594.44
280 K, 992 kPa	595.16
280 K, 1472.7 kPa	595.86
280 K, 1987.6 kPa	596.59
280 K, 2465.8 kPa	597.26
280 K, 2985.5 kPa	597.98
280 K, 3516.7 kPa	598.71
280 K, 3974.9 kPa	599.34
280 K, 4513.6 kPa	600.07
280 K, 4975 kPa	600.69
280 K, 5428.9 kPa	601.3
280 K, 5929.2 kPa	601.98
280 K, 6499.1 kPa	602.71
280 K, 7020 kPa	603.37
300 K, 268.9 kPa	571.14
300 K, 315.1 kPa	571.23
300 K, 493.4 kPa	571.55
300 K, 992.8 kPa	572.45
300 K, 1491.3 kPa	573.35
300 K, 2013.4 kPa	574.26
300 K, 2499.1 kPa	575.12
300 K, 2964 kPa	575.92
300 K, 3499.9 kPa	576.83
300 K, 3992.8 kPa	577.66
300 K, 4525.1 kPa	578.55
300 K, 4990.4 kPa	579.31
300 K, 5543.6 kPa	580.23
300 K, 5951.1 kPa	580.88
300 K, 6459.3 kPa	581.65
300 K, 7089.3 kPa	582.62
320 K, 515.9 kPa	546.74
320 K, 1002.9 kPa	547.89
320 K, 1502.7 kPa	549.06
320 K, 2011.8 kPa	550.22
320 K, 2517.1 kPa	551.36
320 K, 3010.6 kPa	552.45
320 K, 3523.1 kPa	553.55
320 K, 4015.6 kPa	554.6
320 K, 4017.2 kPa	554.6
320 K, 4513.3 kPa	555.64
320 K, 4992.8 kPa	556.63
320 K, 5473.8 kPa	557.6
320 K, 6031 kPa	558.74
320 K, 6510.5 kPa	559.67
320 K, 6982.1 kPa	560.62
340 K, 761.5 kPa	519.87
340 K, 791.7 kPa	519.97
340 K, 989.9 kPa	520.64
340 K, 1519.5 kPa	522.33
340 K, 1975.7 kPa	523.74
340 K, 2514.4 kPa	525.36
340 K, 3012.7 kPa	526.82
340 K, 3504.4 kPa	528.23
340 K, 4034.7 kPa	529.7
340 K, 4437.7 kPa	530.79
340 K, 4964.4 kPa	532.19
340 K, 5471 kPa	533.51
340 K, 5975.4 kPa	534.78
340 K, 6451.2 kPa	535.97
340 K, 7014.5 kPa	537.36
360 K, 1181.7 kPa	490.31
360 K, 1215.8 kPa	490.48
360 K, 1507.5 kPa	491.85
360 K, 2006.4 kPa	494.12
360 K, 2493.7 kPa	496.23
360 K, 2995.1 kPa	498.32
360 K, 3489.7 kPa	500.29
360 K, 3993.1 kPa	502.23
360 K, 4488.7 kPa	504.06
360 K, 4984.1 kPa	505.83
360 K, 5504.8 kPa	507.65
360 K, 5979.4 kPa	509.32
360 K, 6486.7 kPa	510.96
360 K, 7012.4 kPa	512.64
380 K, 1845.2 kPa	455.88
380 K, 1925.7 kPa	456.51
380 K, 2007.2 kPa	457.14
380 K, 2503.7 kPa	460.77
380 K, 3010.6 kPa	464.17
380 K, 3502 kPa	467.25
380 K, 3999.9 kPa	470.18
380 K, 4508.9 kPa	473
380 K, 5015.7 kPa	475.66
380 K, 5511.1 kPa	478.12
380 K, 6013.8 kPa	480.51
380 K, 6534.9 kPa	482.88
380 K, 6978 kPa	484.82

Liquid
Conditions	mass density	vapor or sublimation pressure
240 K	634.72 kg/m3 and 634.79 kg/m3	26.2 kPa and 23.9 kPa
260 K	615.48 kg/m3	59.9 kPa
280 K	593.89 kg/m3	131.5 kPa
300 K	571.03 kg/m3	256.4 kPa
320 K	546.56 kg/m3	454.8 kPa
340 K	520.07 kg/m3 and 519.84 kg/m3	750.5 kPa and 751 kPa
360 K	490.27 kg/m3 and 490.24 kg/m3	1168.5 kPa and 1168.1 kPa
380 K	455 kg/m3	1737.4 kPa
